The source of these data is ChEMBL document CHEMBL3046047, “Synthesis and evaluation of anti-inflammatory and analgesic activity of 3-[(5-substituted-1,3,4-oxadiazol-2-yl-thio)acetyl]-2H-chromen-2-ones” (Med Chem Res, 2012).

As a reminder, the inhibition in vivo is the share of the control response that was lost under treatment.

For data set [1], the system named is Mus musculus. The experiment in a line: Analgesic activity in Mus musculus albino (mouse) assessed as protection against acetic acid-induced writhing at 135 mg/kg, po administered 30 min before acetic acid challenge measured after 15 min relative to control. It is filed as functional.
The test system of data set [2] is Mus musculus. Nature of the data set: Analgesic activity in Mus musculus albino (mouse) assessed as protection against acetic acid-induced writhing at 200 mg/kg, po administered 30 min before acetic acid challenge measured after 15 min relative to control. The data set is classed as functional. In general terms: In writhing tests, fewer writhes than in controls are read as antinociception.

Data set [3] is described as follows: Acute toxicity in po dosed Mus musculus albino (mouse) up to 24 hr. It is filed as organism-based. Particulars: in vivo.
Data set [4] deals with Mus musculus. Nature of the data set: Acute toxicity in Mus musculus albino (mouse) assessed as alertness, touch response, and restlessness at 10 to 2000 mg/kg, po after 24 hr. It is filed as organism-based. Also noted: dose 10-2000 mg/kg, route oral. Conditions: in vivo.
In data set [5] the test system is Mus musculus. The experiment in a line: Acute toxicity in Mus musculus albino (mouse) assessed as mortality up to 2000 mg/kg, po after 24 hr. The data set is classed as organism-based. Particulars: in vivo. The arrangement: dose 2000 mg/kg, route oral.
The subject of data set [6] is Rattus norvegicus. Nature of the data set: Toxicity inRattus norvegicus albino (rat) assessed as ulcer index at 200 mg/kg, po after 7 hr relative to control. Also noted: dose 200 mg/kg, route oral. Conditions: in vivo. It is filed as organism-based.
Data set [7] deals with Rattus norvegicus. The experiment in a line: Acute Anti-inflammatory activity inRattus norvegicus albino (rat) assessed as inhibition of carrageenan-induced paw edema at 200 mg/kg, po administered 1 hr after carrageenan challenge measured after 3 hr relative to control. The data set is classed as functional.
The subject of data set [8] is Rattus norvegicus. Nature of the data set: Acute Anti-inflammatory activity in Rattus norvegicus albino (rat) assessed as inhibition of carrageenan-induced paw edema at 200 mg/kg, po administered 1 hr after carrageenan challenge measured after 5 hr relative to control. The data set is classed as functional.
The subject of data set [9] is Rattus norvegicus. The experiment in a line: Acute Anti-inflammatory activity in Rattus norvegicus albino (rat) assessed as inhibition of carrageenan-induced paw edema at 13.5 mg/kg, po administered 1 hr after carrageenan challenge measured after 5 hr relative to control. It is filed as functional. (Carrageenan injected into the paw causes an acute inflammation.)
In data set [10] the test system is Rattus norvegicus. The experiment in a line: Acute Anti-inflammatory activity in Rattus norvegicus albino (rat) assessed as inhibition of carrageenan-induced paw edema at 13.5 mg/kg, po administered 1 hr after carrageenan challenge measured after 3 hr relative to control. It is filed as functional.

Turning to `CC(=O)Oc1ccccc1C(=O)O` [ASPIRIN], the Activity with Mus musculus [1] turned out to be 69%.

Take `O=C(CSc1nnc(Cc2ccccc2Nc2c(Cl)cccc2Cl)o1)c1cc2ccccc2oc1=O`: the Activity in the data set on Mus musculus [2] was 68%; in the data set with Mus musculus [4], “Toxic”; with Mus musculus [5] it was “Non-toxic”. Also, in data set [3], the MTD at 24 h worked out at 200 mg/kg. Also, in the data set with Rattus norvegicus [6], the UI is reported as 1.7. Further, the inhibition in vivo at 200 mg/kg in the data set on Rattus norvegicus [7] worked out at 81.3%; in the data set with Rattus norvegicus [8], 64.5%.

`CC(=O)Nc1ccc(OCc2nnc(SCC(=O)c3cc4ccccc4oc3=O)o2)cc1` had an MTD at 24 h in data set [3] of 200 mg/kg. In addition, the results for the Activity result with Mus musculus [4] and in the data set with Mus musculus [5] were “Toxic” and “Non-toxic”, respectively. Moreover, the inhibition in vivo at 200 mg/kg in the data set with Rattus norvegicus [7] is 56.3%; in the data set on Rattus norvegicus [8], 43.4%.

With `CC(C(=O)O)c1ccc(-c2ccccc2)c(F)c1` (stereo not given) [FLURBIPROFEN], the UI in the data set with Rattus norvegicus [6] came out at 5.3.

The compound `COc1ccc2c(c1)c(Cc1nnc(SCC(=O)c3cc4ccccc4oc3=O)o1)c(C)n2C(=O)c1ccc(Cl)cc1` returned an MTD at 24 h in [3] of 200 mg/kg. Also, the Activity result in the data set with Mus musculus [4] is recorded as “Toxic”; in the data set on Mus musculus [5] it was “Non-toxic”. Besides, the inhibition in vivo at 200 mg/kg in the data set on Rattus norvegicus [7] stood at 56.9%; with Rattus norvegicus [8], 51.3%.

`O=C(c1ccccc1)c1ccc2n1CCC2C(=O)O` (stereo not given) [KETOROLAC]: in the data set with Rattus norvegicus [6], the UI is recorded as 4.9.

`O=C(Cc1ccccc1Nc1c(Cl)cccc1Cl)OCc1nnc(SCC(=O)c2cc3ccccc3oc2=O)o1` returned an MTD at 24 h in data set [3] of 200 mg/kg. Moreover, the Activity result in the data set with Mus musculus [4] was “Toxic”; in the data set on Mus musculus [5], “Non-toxic”. In addition, the inhibition in vivo at 200 mg/kg with Rattus norvegicus [7] was 37.5%; in the data set on Rattus norvegicus [8] it was 26.3%.

For the compound `C[C@H](c1ccc(-c2ccccc2)c(F)c1)c1nnc(SCC(=O)c2cc3ccccc3oc2=O)o1`, the Activity in the data set on Mus musculus [2] was 60%; in the data set with Mus musculus [4], “Toxic”; with Mus musculus [5], “Non-toxic”. For the same compound, the MTD at 24 h in data set [3] was determined as 200 mg/kg. Moreover, the UI with Rattus norvegicus [6] is listed as 2.3. The inhibition in vivo at 200 mg/kg with Rattus norvegicus [7] is 74.9%; in the data set with Rattus norvegicus [8], 61.6%.

In turn, `CC(C)Cc1ccc(C(C)c2nnc(SCC(=O)c3cc4ccccc4oc3=O)o2)cc1` (stereo not given) displayed an MTD at 24 h in data set [3] of 200 mg/kg. Moreover, the Activity result with Mus musculus [4] was “Toxic”; in the data set with Mus musculus [5], “Non-toxic”. Moreover, the inhibition in vivo at 200 mg/kg with Rattus norvegicus [7] came to 45%; in the data set with Rattus norvegicus [8], 46.1%.

As to `CC(C(=O)O)c1cccc(C(=O)c2ccccc2)c1` (stereo not given) [KETOPROFEN], the UI in the data set with Rattus norvegicus [6] is 4.6.

In the case of `O=C(CSc1nnc(C2CCn3c(C(=O)c4ccccc4)ccc32)o1)c1cc2ccccc2oc1=O` (stereo not given), the figures for the Activity in the data set on Mus musculus [2], in the data set on Mus musculus [4] and in the data set on Mus musculus [5] were 54%, “Toxic” and “Non-toxic”, respectively. The MTD at 24 h in [3] came to 200 mg/kg. For the same compound, in the data set on Rattus norvegicus [6], the UI was 4.4. Further, the inhibition in vivo at 200 mg/kg amounted to 67.4% with Rattus norvegicus [7] and 71.3% in the data set with Rattus norvegicus [8].

With `O=C(O)Cc1ccccc1Nc1c(Cl)cccc1Cl` [DICLOFENAC], the inhibition in vivo at 13.5 mg/kg was found to be 75% with Rattus norvegicus [9] and 79.5% in the data set with Rattus norvegicus [10]. The UI in the data set on Rattus norvegicus [6] is recorded as 5.5.

With `CC(c1cccc(C(=O)c2ccccc2)c1)c1nnc(SCC(=O)c2cc3ccccc3oc2=O)o1` (stereo not given), the Activity in the data set on Mus musculus [2] is 73%; in the data set with Mus musculus [4], “Toxic”; with Mus musculus [5] it was “Non-toxic”. In data set [3], this compound had an MTD at 24 h of 200 mg/kg. Further, the UI with Rattus norvegicus [6] was found to be 3.2. Moreover, the results for the inhibition in vivo at 200 mg/kg with Rattus norvegicus [7] and with Rattus norvegicus [8] were 65.4% and 60.9%, respectively.

As to `O=C(CSc1nnc(-c2ccccc2O)o1)c1cc2ccccc2oc1=O`, the MTD at 24 h in data set [3] is 200 mg/kg. For the same compound, the figures for the Activity entry in the data set on Mus musculus [4] and in the data set on Mus musculus [5] were “Toxic” and “Non-toxic”, respectively. In addition, the figures for the inhibition in vivo at 200 mg/kg in the data set with Rattus norvegicus [7] and in the data set on Rattus norvegicus [8] were 46.3% and 48.7%, respectively.
